Results as given in US8946426B2, “Substituted bicyclic heterocyclic compounds as gamma secretase modulators” (Janssen Pharmaceuticals, Inc., priority 2009, dated 2015).

Legend:
Aβtotal [1] = experiment: Method 2: Aβtotal Alphalisa in supernatant of SKNBE2 cells carrying APP 695-wild type (Table 7c); format: cell-based; settings: Method 2, Alphalisa, overnight incubation
Procedure, shortened: (§1)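 SKNBE2 cells expressing wild-type APP695 incubated overnight at 37° C with test compound, 10^4 cells/well. Supernatant Aβ42 (C-terminal JRF/cAβ42/26 with N-terminal JRF/AβN/25) and Aβtotal (JRF/AβN/25 with 4G8) quantified by AlphaLISA. IC50 from 4-parameter fit of percent of untreated control.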

Aβ42 = experiment: Method 2: Aβ42 Alphalisa in supernatant of SKNBE2 cells carrying APP 695-wild type (Table 7c); format: cell-based; settings: Method 2, Alphalisa, overnight incubation
Procedure, shortened: as §1

Aβtotal [2] = experiment: Method 1: Aβtotal sandwich ELISA in supernatant of SKNBE2 cells carrying APP 695-wild type (Tables 7a, 7b); format: cell-based
Procedure, shortened: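 SKNBE2 cells expressing wild-type APP695 were exposed to compound for 18 Hours in Ultraculture with 1% glutamine. Aβtotal in the supernatant was read by 6E10-capture/biotinylated 4G8 sandwich ELISA with a fluorogenic peroxidase read-out, and WST-1 checked toxicity. IC50 came from a 4-parameter fit of percent inhibition or percent of control versus concentration.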

[3] = test system: Notch-processing activity of the γ-secretase-complex; experiment: Notch cell-free assay (NICD production from recombinant Notch substrate N99); format: biochemical; settings: 1 μM test compound; 0.3-0.5 μM mouse Notch substrate; enriched gamma secretase; 37° C., 6 to 22 h; western blot; control GSI concentration not given
Procedure: The Notch transmembrane domain is cleaved by gamma secretase to release Notch Intracellular C-terminal Domain (NICD).
To monitor the effect of compounds on NICD production, a recombinant Notch substrate (N99) was prepared. The Notch substrate, comprised of mouse Notch fragment (V1711-E1809), an N-terminal methionine and a C-terminal FLAG sequence ([…]), was expressed in E. coli and purified on a column containing an anti-FLAG M2 affinity matrix.
A typical Notch cell-free assay consisted of 0.3-0.5 μM Notch substrate, an enriched preparation of gamma secretase and 1 μM of a test compound (compounds 16, 18 and 106 of the present invention). Controls included a gamma secretase inhibitor (GSI), such as (2S)—N-[2-(3,5-difluorophenyl)acetyl]-L-alanyl-2-phenyl-glycine 1,1-dimethylethyl ester (DAPT) or (2S)-2-hydroxy-3-methyl-N-[(1S)-1-methyl-2-oxo-2-[[(1S)-2,3,4,5-tetrahydro-3-methyl-2-oxo-1H-3-benzazepin-1-yl]amino]ethyl]-butanamide (Semagacestat), and DMSO, the final concentration of DMSO being 1%. Recombinant Notch substrate was pre-treated with 17 μM DTT (1,4-dithiothreitol) and 0.02% SDS (Sodium Dodecyl Sulfate) and heated at 65° C. for 10 min. The mixture of substrate, gamma secretase and compound/DMSO was incubated at 37° C. for 6 to 22 hours (h). Six-hour incubation was sufficient to produce the maximal amount of NICD and the cleaved product remained stable for an additional 16 H. Reaction products were processed for SDS PAGE (Sodium Dodecyl Sulfate-Poly Acrylamide Gel Electrophoresis) and western blotting. Blots were probed with an anti-Flag M2 antibody, followed by LI-COR infrared secondary antibody, and analyzed with the Odyssey Infrared Imaging System (LI-COR® Biosciences).

[4] = Homo sapiens, SKNBE2, Table 7b, averaged IC50, non-linear regression of percentage of control vs log concentration, 4-parameter equation
[5] = Homo sapiens, Table 7a, SKNBE2 cells, compounds 18 h, XLfit 4-parameter fit of percent inhibition, top/bottom fixed to 100/0, hill slope 1
[6] = Table 7b, averaged IC50, non-linear regression of percentage of control vs log concentration, 4-parameter equation

Row | SMILES | IC50 (Aβtotal [1]; Homo sapiens) [µM] | IC50 (Aβ42; Homo sapiens) [µM] | melting point [°C] | IC50 (Aβtotal [2]; [4]) [µM] | IC50 (Aβtotal [2]; [5]) [µM] | effect on the Notch-processing activity of the γ-secretase-complex (production of NICD) [3] | IC50 (Aβtotal [1]) [µM] | IC50 (Aβ42) [µM] | IC50 (Aβtotal [2]; [6]) [µM]
1 | Cc1ncoc1-c1ccc(Nc2cccc3c2nc(-c2ccc(F)cc2)n3C)nc1 [Compound 10] | > 10 | 1.74 | 195.4 |  |  |  |  |  | 
2 | COc1cc(Nc2cccc3c2nc(CCC(F)(F)F)n3C)ccc1-c1ocnc1C [Compound 11] | > 10 | 0.363 |  |  |  |  |  |  | 
3 | COc1cc(Nc2cccc3c2nc(-c2ccc(F)cc2)n3C)ccc1-c1ocnc1C [Compound 12] | 7.76 | 0.035 |  | > 3 | > 1 |  |  |  | 
4 | COc1cc(Nc2cccc3c2nc(-c2ccc(F)cc2)n3C)ccc1-c1cnc(C)o1 [Compound 16] | 8.71 | 0.016 | 189 | > 3 | > 3 | did not show an effect |  |  | 
5 | Cc1ncc(-c2ccc(Nc3nccc4c3nc(-c3ccc(F)cc3)n4C)cc2F)o1 [Compound 17] | > 10 | 0.166 |  | > 3 |  |  |  |  | 
6 | Cc1ncc(-c2ccc(Nc3cccc4c3nc(-c3ccc(F)cc3)n4C(C)C)cn2)o1 [Compound 18] | 6.46 | 0.02 | 133.4 | > 3 |  | did not show an effect |  |  | 
7 | COc1cccc(-c2nc3c(Nc4ccc(-c5cnc(C)o5)nc4)cc(F)cc3n2C)c1 [Compound 105] |  |  |  |  |  |  | > 10 | 0.014 | > 3
8 | COc1cc(Nc2nc(C(F)(F)F)cn3cc(C)nc23)ccc1-c1cnc(C)o1 [Compound 170] |  |  |  |  |  |  | > 10 | 7.41 | 
9 | COc1cc(Nc2cncc3c2nc(-c2ccc(F)cc2)n3C)ccc1-c1cnc(C)o1 [Compound 186] |  |  |  |  |  |  | > 10 | 0.041 | > 10
10 | COc1cc(Nc2cc(C(F)(F)F)nn3cc(C)nc23)ccc1-c1cnc(C)o1 [Compound 195] |  |  |  |  |  |  | > 10 | 0.282 | > 10
